Values of other authors as cited in patent US20130121964A1, “Pharmacogenomic and Response-Guided Treatment of Infectious Disease Using Yeast-Based Immunotherapy” (GLOBEIMMUNE, INC., priority 2010, published 2013).

Key:
[1] = in vivo

solubility in anhydrous alcohol (anhydrous alcohol): slightly soluble | solubility in water (water): freely soluble
SMILES: NC(=O)c1ncn([C@@H]2O[C@H](CO)[C@@H](O)[C@H]2O)n1 [Ribavirin, 1-(beta)-D-ribofuranosyl-1H-1,2,4-triazole-3-carboxamide]
patients with hemolytic anemia [1]: 20-30%
